Key:
[1] = biological target: T1, dihydrofolate reductase (DHFR) in the liver (Mus musculus, UniProt P00375); experiment: free DHFR in liver by 3H-MTX binding after weekly dosing; format: in vivo, mice
T1 construct: from tissue; host or cells: liver (homogenate supernatant) of dosed mice
T1 sequence (P00375 1-187): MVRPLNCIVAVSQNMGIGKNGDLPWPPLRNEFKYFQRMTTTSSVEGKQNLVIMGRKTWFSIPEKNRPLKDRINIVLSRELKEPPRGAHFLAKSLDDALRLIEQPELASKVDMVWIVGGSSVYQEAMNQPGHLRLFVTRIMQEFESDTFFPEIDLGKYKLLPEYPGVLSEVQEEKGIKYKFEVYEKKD
Experimental: The animals that were treated in Example 1 were further analyzed with respect to the free dihydrofolate reductase (DHFR) available in their livers (i.e., amount of DHFR unbound, or not inhibited by either AMT or MTX) (FIG. 6). The following procedure was used. Portions of frozen liver were weighed and homogenized in three volumes of assay buffer (10 mM KPO4, 150 mM KCl, 1 mg/ml charcoal-treated BSA, 0.1 mg/ml NADPH, pH 7.5) on ice. After centrifugation for 30 min at 16000×G at 4° C., tissue extract was assayed for free DHFR by binding of 3H-MTX. Three serial 1:2 dilutions were made in assay buffer (total 100 μl/tube), starting with 10 μl extract for control samples (+190 μl buffer) or 100 μl for antifolate-treated samples. Approximately 2 pmoles of 3H-MTX (˜100,000 dpms) in 100 μl buffer was added to each tube and mixed by addition of another 100 μl buffer and agitation. After 30 mins on ice, unbound 3H-MTX was removed by addition of 200 μl dextran-coated activated charcoal (2.5% activated charcoal and 0.5% dextran MW 10,000) and centrifugation. Radioactivity in the supernatant (=bound 3H-MTX) was counted after careful removal from the charcoal pellet and addition of Ultima Gold scintillation fluid. A charcoal “blank” consisting of buffer, 3H-MTX and charcoal was subtracted from each value. Results were calculated by averaging the dpms bound/100 μl of the three dilutions, converting to picomoles MTX (specific activity 49,000 dpms/picomole, determined by competitive radioligand assay), and multiplying by 30 to give picomoles/gm tissue.

formaldehyde arthritis = conditions: cumulative weekly doses of 0.3 mg/kg; cited from earlier work
[2] = storage of aqueous compositions; format: physicochemical; conditions: six months of storage; water converts aminopterin to folic acid
Text: Because of their ease of administration, tablets and capsules represent the most advantageous oral dosage form in adults, in which case solid pharmaceutical carriers are employed. If desired, tablets may be coated by standard aqueous or nonaqueous techniques. The parenteral dosage form can consist of a sterile solution of the active ingredient, either in its free or salt form, in physiological buffer or sterile water. In addition, parenteral solutions can contain preservatives such as benzalkonium chloride, methyl- or propyl-paraben and chlorobutanol. Suitable pharmaceutical carriers are described in Remington's Pharmaceutical Sciences, a standard reference text in this field. […] Accordingly, such aqueous compositions are best stored desiccated and hydrated within several hours to several days prior to patient administration.

[3] = test system: influx of neutrophils (PMNs) in hyperoxia; experiment: rat oxygen-toxicity model of bronchopulmonary dysplasia; format: in vivo, rats; conditions: single 0.2 mg/kg ip injection day 2 after birth, 95% oxygen, sacrifice day 8
Text: Mason, S, N.; Richard L. Auten, J. Lung inflammation in hyperoxia can be prevented by antichemokine treatment in newborn rats. American Journal of Respiratory Critical Care Medicine 2000, 162, 2316-2323]. […] Litter sizes were the same. […] Dams were rotated daily between air and oxygen cages to avoid maternal oxygen toxicity. On day 8, the pups were weighed and then euthanized, tracheas are cannulated and the pulmonary artery is perfused with saline. Bronchoalveolar lavage fluid (BALF) was then obtained for cell count and chemokine analysis (FIG. 3). The lungs were removed and snap frozen for myeloperoxidase activity assay (neutrophil accumulation within lung parenchyma) and 8-isoprostane, a marker of lipid oxidation. The pulmonary artery was perfused and the lungs were inflation-fixed with buffered formalin at 25 cm H2O.

active and passive EAE = experiment: rat EAE animal model of multiple sclerosis; format: in vivo
Experimental: Using the rat EAE animal model of multiple sclerosis, a series of prophetic studies are performed wherein aminopterin is given to animals using both active and passive protocols for inducing EAE (Burton, Agents and Actions (1989) 27 (3/4): 351-355). In the active protocol, animals are intradermally injected with myelin basic protein (MBP), Freund's adjuvant and mycobacteria, whereas in the passive protocol separate donor rats are immunized actively and then 10-12 days after active immunization, donor splenocytes are collected and stimulated […] with MBP for 3 days, then 1−2×10^8 leukocytes injected iv into each irradiated (600 rads) recipient rat. Aminopterin at doses of 0.0005, 0.001, 0.002, 0.005, 0.008, 0.010, 0.050, 0.1 and 0.5 mg/kg are administered ip on the day after active or passive sensitization.

Question: For Nc1nc(N)c2nc(CNc3ccc(C(=O)N[C@@H](CCC(=O)O)C(=O)O)cc3)cnc2n1 [aminopterin, 4-amino-pteroyl-L-glutamic acid], which “available DHFR in the liver bound (inhibited)” value ([1]; 1 day after the last of 4 sequential weekly doses) is on record?
Answer: about 95%

Question: And the “available DHFR in the liver bound (inhibited)” value ([1]; 8 d after the last of 4 weekly doses)?
Answer: about 83%

Question: And the “available DHFR in the liver bound (inhibited)” value ([1]; 22 d after the last of 4 weekly doses)?
Answer: about 70%

Question: And the efficacy (formaldehyde arthritis)?
Answer: demonstrated the efficacy

Question: What about the “stability of parenteral, oral liquid or other aqueous compositions” value [2] of the same molecule?
Answer: accumulate folic acid to undesirable levels

Question: What about the “number of neutrophils in bronchoalveolar lavage fluid” value [3] of the same molecule?
Answer: statistically significant reduction

Question: What about the “persistence of inhibition after the single dose” value (active and passive EAE; active or passive EAE) of the same molecule?
Answer: up to 14 days

Question: And the “dose-response over the range of doses” value (active and passive EAE; sensitized actively or passively)?
Answer: clear dose-response

Question: What about the “inhibition of the onset of active EAE” value (active and passive EAE; single ip dose (0.0005-0.5 mg/kg) day after active sensitization, one or more of the doses) of the same molecule?
Answer: greater than 80%

Question: And the “inhibition of the onset of passive EAE” value (active and passive EAE; single ip dose (0.0005-0.5 mg/kg) day after passive sensitization, one or more of the doses)?
Answer: greater than 80%

From patent publication US8129383B2, “Aminopterin dosage forms and methods for inflammatory disorders” (Aminopterin LLC, priority 2005, dated 2012)
